Earlier results, collected in patent US20190321395A1, “TREATMENT OF PSORIASIS, SEBORRHEIC DERMATITIS, AND ECZEMA OF THE HEAD AND NECK” (Oread Therapeutics, priority 2018, published 2019).

Structure (SMILES) | Water Solubility
CC(=O)N1CCN(c2ccc(OCC3COC(Cn4ccnc4)(c4ccc(Cl)cc4Cl)O3)cc2)CC1 (centres unmarked) [Ketoconazole] | 0.9 µg/mL
[O-][n+]1ccccc1[S-].[O-][n+]1ccccc1[S-].[Zn+2] [Pyrithione Zinc] | 86.00 µg/mL
